Assay results taken from article PMC6587565 (Diabetes, Obesity & Metabolism, 2018).
Where two headings read alike, the source gives them in different places.

What was measured:
[1] = format: in vivo, human
[2] = system: patients with type 1 diabetes mellitus; assay: Safety: adverse events, hypoglycaemic episodes, local tolerability; format: in vivo, human
[3] = system: plasma glucose (PG) in patients with type 1 diabetes mellitus; format: in vivo, human; conditions: for AUE0-30min / AUE0-240min (area under plasma glucose excursions above baseline) / CE30min (plasma glucose excursion at 30 minutes) / CEmax (maximum plasma glucose excursion) / tCEmax (time to maximum plasma glucose excursion) / tPG increase ≥ 20 mg/dL (time to increase in plasma glucose ≥[…]) / tPG ≥70 mg/dL (time to reach plasma glucose ≥[…]): T1DM patients; for AUE0-30min / AUE0-240min (area under plasma glucose excursions above baseline) / CE30min (plasma glucose excursion at 30 minutes) / CEmax (maximum plasma glucose excursion): mean (SD), SD; for tCEmax (time to maximum plasma glucose excursion) / tPG increase ≥ 20 mg/dL (time to increase in plasma glucose ≥[…]) / tPG ≥70 mg/dL (time to reach plasma glucose ≥[…]): median (range)
[4] = hypoglycaemia, single s.c. dose 0.03 mg, T1DM patients, mean (SD), N=14, SD
[5] = euglycaemia, single s.c. dose 0.6 mg, N=17
[6] = hypoglycaemia, single s.c. dose 0.03 mg, N=17
[7] = hypoglycaemia, single s.c. dose 0.08 mg, N=17
[8] = hypoglycaemia, single s.c. dose 0.2 mg, N=17
[9] = hypoglycaemia, single s.c. dose 0.6 mg, N=17

CC(C)C[C@H](NC(=O)[C@H](Cc1c[nH]c2ccccc12)NC(=O)[C@H](CCCCN)NC(=O)[C@@H](NC(=O)[C@H](Cc1ccccc1)NC(=O)[C@H](CCC(=O)O)NC(=O)[C@H](CCC(=O)O)NC(=O)[C@H](C)NC(=O)[C@H](CCCNC(=N)N)NC(=O)[C@H](C)NC(=O)C(C)(C)NC(=O)[C@H](CC(=O)O)NC(=O)[C@H](CC(C)C)NC(=O)[C@H](Cc1ccc(O)cc1)NC(=O)[C@H](CCCCN)NC(=O)[C@H](CO)NC(=O)[C@H](Cc1ccc(O)cc1)NC(=O)[C@H](CC(=O)O)NC(=O)[C@H](CO)NC(=O)[C@@H](NC(=O)[C@H](Cc1ccccc1)NC(=O)[C@@H](NC(=O)CNC(=O)[C@H](CCC(N)=O)NC(=O)[C@H](CO)NC(=O)[C@@H](N)Cc1c[nH]cn1)[C@@H](C)O)[C@@H](C)O)C(C)C)C(=O)N[C@@H](CCC(=O)O)C(=O)N[C@@H](CO)C(=O)N[C@H](C(=O)O)[C@@H](C)O [Dasiglucagon, dasiglucagon]
AUC0-inf ([1]; euglycaemia, single s.c. dose 0.6 mg, T1DM patients, mean (SD), N=17, SD): 3710 (585) pmol*h/L
Tmax ([1]; euglycaemia, single s.c. dose 0.6 mg, T1DM patients, median (range), N=17): 0.5 (0.25‐1) h
Tmax ([1]; human, plasma, sc, 0.03 mg): 30 min
CL/F ([1]; human, plasma, sc, 0.03 mg, SD): 863 mL/min
half-life ([1]; human, plasma, sc, 0.03 mg, SD): 22.9 min
Tmax ([1]; human, plasma, sc, 0.08 mg): 30 min
CL/F ([1]; human, plasma, sc, 0.08 mg, SD): 688 mL/min
half-life ([1]; human, plasma, sc, 0.08 mg, SD): 28.4 min
Tmax ([1]; human, plasma, sc, 0.2 mg): 30 min
half-life ([1]; human, plasma, sc, 0.2 mg, SD): 33.9 min
Tmax ([1]; human, plasma, sc, 0.6 mg): 30 min
AUC0-inf [1, 4]: 182 (45.9) pmol*h/L
CL/f (total body clearance) [1, 4]: 52.6 (16.7) L/h
AUC0-240min ([1]; hypoglycaemia, single s.c. dose 0.03 mg, T1DM patients, mean (SD), N=17, SD): 174 (43.1) pmol*h/L
Tmax ([1]; hypoglycaemia, single s.c. dose 0.03 mg, T1DM patients, median (range), N=17): 0.5 (0.25‐1) h
t1/2 (terminal elimination half-life) ([1]; hypoglycaemia, single s.c. dose 0.08 mg, T1DM patients, mean (SD), N=16, SD): 0.472 (0.154) h
Tmax ([1]; hypoglycaemia, single s.c. dose 0.08 mg, T1DM patients, median (range), N=17): 0.5 (0.25‐1) h
Total hypoglycaemic events ([2]; 17 completers, range of small doses (0.03-0.2 mg)): 18
Overall safety and tolerability ([2]; all doses (0.03-0.6 mg s.c.)): safe and well tolerated
Median time (range) to an increase in PG of at least […] (20 mg/dL) ([3]; 0.03 mg s.c., at both euglycaemia and hypoglycaemia): < 20 (18‐19.5) minutes
AUE0-30min [3, 5]: 18.3 (5.25) mg*h/dL
AUE0-240min (area under plasma glucose excursions above baseline) [3, 5]: 479 (159) mg*h/dL
CE30min (plasma glucose excursion at 30 minutes) [3, 5]: 79.8 (23.4) mg/dL
CEmax (maximum plasma glucose excursion) [3, 5]: 165 (46.1) mg/dL
tCEmax (time to maximum plasma glucose excursion) [3, 5]: 90.0 (70‐240) min
tPG increase ≥ 20 mg/dL (time to increase in plasma glucose ≥[…]) [3, 5]: 10.0 (8‐14) min
Patients achieving a PG level of at least […] within 30 minutes post-dose ([3]; hypoglycaemia, dose levels of 0.08 mg and above): 100%
Patients achieving a PG level of at least […] within 30 minutes post-dose ([3]; hypoglycaemia, lowest dose level (0.03 mg)): 70.6%
AUE0-30min [3, 6]: 4.60 (5.24) mg*h/dL
AUE0-240min (area under plasma glucose excursions above baseline) [3, 6]: 70.6 (100) mg*h/dL
CE30min (plasma glucose excursion at 30 minutes) [3, 6]: 23.7 (24.9) mg/dL
CEmax (maximum plasma glucose excursion) [3, 6]: 37.9 (38.9) mg/dL
tPG increase ≥ 20 mg/dL (time to increase in plasma glucose ≥[…]) ([3]; hypoglycaemia, single s.c. dose 0.03 mg, N=10): 19.5 (12‐42) min
tPG ≥70 mg/dL (time to reach plasma glucose ≥[…]) ([3]; hypoglycaemia, single s.c. dose 0.03 mg, N=13): 14.0 (5‐37) min
tCEmax (time to maximum plasma glucose excursion) [3, 6]: 50.0 (0‐90) min
AUE0-30min [3, 7]: 14.3 (10.1) mg*h/dL
AUE0-240min (area under plasma glucose excursions above baseline) [3, 7]: 249 (201) mg*h/dL
CE30min (plasma glucose excursion at 30 minutes) [3, 7]: 63.9 (38.6) mg/dL
CEmax (maximum plasma glucose excursion) [3, 7]: 106 (61.1) mg/dL
tCEmax (time to maximum plasma glucose excursion) [3, 7]: 70.0 (50‐90) min
tPG increase ≥ 20 mg/dL (time to increase in plasma glucose ≥[…]) [3, 7]: 14.0 (7‐48) min
tPG ≥70 mg/dL (time to reach plasma glucose ≥[…]) [3, 7]: 10.0 (2‐27) min
AUE0-30min [3, 8]: 19.0 (6.43) mg*h/dL
AUE0-240min (area under plasma glucose excursions above baseline) [3, 8]: 406 (175) mg*h/dL
CE30min (plasma glucose excursion at 30 minutes) [3, 8]: 86.8 (27.2) mg/dL
CEmax (maximum plasma glucose excursion) [3, 8]: 154 (48.4) mg/dL
tCEmax (time to maximum plasma glucose excursion) [3, 8]: 90.0 (70‐150) min
tPG increase ≥ 20 mg/dL (time to increase in plasma glucose ≥[…]) [3, 8]: 11.0 (8‐20) min
tPG ≥70 mg/dL (time to reach plasma glucose ≥[…]) [3, 8]: 6.0 (5‐11) min
AUE0-30min [3, 9]: 21.9 (5.68) mg*h/dL
AUE0-240min (area under plasma glucose excursions above baseline) [3, 9]: 535 (187) mg*h/dL
CE30min (plasma glucose excursion at 30 minutes) [3, 9]: 94.2 (21.9) mg/dL
CEmax (maximum plasma glucose excursion) [3, 9]: 192 (54.1) mg/dL
tCEmax (time to maximum plasma glucose excursion) [3, 9]: 90.0 (70‐150) min
tPG increase ≥ 20 mg/dL (time to increase in plasma glucose ≥[…]) [3, 9]: 9.00 (8‐14) min
tPG ≥70 mg/dL (time to reach plasma glucose ≥[…]) [3, 9]: 6.0 (2‐8) min
